Experimental data: PMC3961306, “Comparison of the Cancer Gene Targeting and Biochemical Selectivities of All Targeted Kinase Inhibitors Approved for Clinical Use” (PLoS ONE, 2014)

Key:
Assay in all cases: Kinase profiling in a biochemical assay panel (mobility shift assays and ELISA), %-inhibition at 1 μM; selectivity entropy
[1] = biological target: T1, panel of more than 300 wild-type and mutant kinases (313 kinase panel) (Homo sapiens, UniProt P00540); conditions: kinase MOS; 1 μM
T1 sequence (P00540 1-346): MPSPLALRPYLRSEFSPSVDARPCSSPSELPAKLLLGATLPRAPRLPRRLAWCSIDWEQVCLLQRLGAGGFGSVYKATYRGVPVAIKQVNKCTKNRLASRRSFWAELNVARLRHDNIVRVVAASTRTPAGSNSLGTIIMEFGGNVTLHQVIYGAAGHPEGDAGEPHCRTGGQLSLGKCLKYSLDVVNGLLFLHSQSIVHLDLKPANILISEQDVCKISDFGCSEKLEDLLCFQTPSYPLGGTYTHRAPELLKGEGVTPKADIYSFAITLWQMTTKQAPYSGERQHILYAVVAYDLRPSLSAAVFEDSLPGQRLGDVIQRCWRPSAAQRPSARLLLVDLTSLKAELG

[2] = biological target: T2, panel of more than 300 wild-type and mutant kinases (313 kinase panel) (Homo sapiens, UniProt O15146)
T2 sequence (O15146 24-869): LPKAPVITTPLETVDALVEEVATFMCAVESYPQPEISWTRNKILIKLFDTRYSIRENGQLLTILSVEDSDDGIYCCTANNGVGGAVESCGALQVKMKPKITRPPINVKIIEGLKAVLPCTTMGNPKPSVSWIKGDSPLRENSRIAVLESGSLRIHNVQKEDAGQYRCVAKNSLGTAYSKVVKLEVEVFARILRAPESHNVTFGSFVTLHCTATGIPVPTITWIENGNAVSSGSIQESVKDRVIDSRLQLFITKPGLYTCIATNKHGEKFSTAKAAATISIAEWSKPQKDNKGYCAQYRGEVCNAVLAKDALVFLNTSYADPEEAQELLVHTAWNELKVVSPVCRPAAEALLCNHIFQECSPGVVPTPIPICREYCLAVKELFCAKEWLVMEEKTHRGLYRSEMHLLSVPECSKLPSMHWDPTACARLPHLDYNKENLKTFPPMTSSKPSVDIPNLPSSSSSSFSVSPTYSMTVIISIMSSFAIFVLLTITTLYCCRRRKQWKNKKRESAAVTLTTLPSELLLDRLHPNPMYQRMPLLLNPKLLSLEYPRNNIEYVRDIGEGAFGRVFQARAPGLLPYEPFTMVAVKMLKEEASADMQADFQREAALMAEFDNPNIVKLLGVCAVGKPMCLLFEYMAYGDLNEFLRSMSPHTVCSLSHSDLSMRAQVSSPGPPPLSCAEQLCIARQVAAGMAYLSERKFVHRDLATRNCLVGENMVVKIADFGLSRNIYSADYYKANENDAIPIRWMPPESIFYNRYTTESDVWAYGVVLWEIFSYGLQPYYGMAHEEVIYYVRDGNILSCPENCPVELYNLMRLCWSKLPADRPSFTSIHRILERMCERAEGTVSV

[3] = biological target: panel of more than 300 wild-type and mutant kinases (313 kinase panel) (Homo sapiens, UniProt P50613)
Sequence of panel of more than 300 wild-type and mutant kinases (313 kinase panel) (Homo sapiens, UniProt P50613) (P50613 whole entry, change not shown): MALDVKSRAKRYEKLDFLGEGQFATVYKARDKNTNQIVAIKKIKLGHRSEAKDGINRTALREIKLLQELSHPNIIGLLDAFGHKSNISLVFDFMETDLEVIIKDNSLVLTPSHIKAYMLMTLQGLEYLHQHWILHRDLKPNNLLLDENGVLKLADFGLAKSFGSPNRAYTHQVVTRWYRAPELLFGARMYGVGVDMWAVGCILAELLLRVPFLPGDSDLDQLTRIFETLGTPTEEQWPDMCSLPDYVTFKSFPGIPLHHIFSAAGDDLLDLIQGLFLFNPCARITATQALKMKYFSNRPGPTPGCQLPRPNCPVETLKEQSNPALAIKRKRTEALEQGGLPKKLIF

[4] = biological target: panel of more than 300 wild-type and mutant kinases (313 kinase panel) (Homo sapiens, UniProt Q15303)
Sequence of panel of more than 300 wild-type and mutant kinases (313 kinase panel) (Homo sapiens, UniProt Q15303) (Q15303 26-1308, change not shown): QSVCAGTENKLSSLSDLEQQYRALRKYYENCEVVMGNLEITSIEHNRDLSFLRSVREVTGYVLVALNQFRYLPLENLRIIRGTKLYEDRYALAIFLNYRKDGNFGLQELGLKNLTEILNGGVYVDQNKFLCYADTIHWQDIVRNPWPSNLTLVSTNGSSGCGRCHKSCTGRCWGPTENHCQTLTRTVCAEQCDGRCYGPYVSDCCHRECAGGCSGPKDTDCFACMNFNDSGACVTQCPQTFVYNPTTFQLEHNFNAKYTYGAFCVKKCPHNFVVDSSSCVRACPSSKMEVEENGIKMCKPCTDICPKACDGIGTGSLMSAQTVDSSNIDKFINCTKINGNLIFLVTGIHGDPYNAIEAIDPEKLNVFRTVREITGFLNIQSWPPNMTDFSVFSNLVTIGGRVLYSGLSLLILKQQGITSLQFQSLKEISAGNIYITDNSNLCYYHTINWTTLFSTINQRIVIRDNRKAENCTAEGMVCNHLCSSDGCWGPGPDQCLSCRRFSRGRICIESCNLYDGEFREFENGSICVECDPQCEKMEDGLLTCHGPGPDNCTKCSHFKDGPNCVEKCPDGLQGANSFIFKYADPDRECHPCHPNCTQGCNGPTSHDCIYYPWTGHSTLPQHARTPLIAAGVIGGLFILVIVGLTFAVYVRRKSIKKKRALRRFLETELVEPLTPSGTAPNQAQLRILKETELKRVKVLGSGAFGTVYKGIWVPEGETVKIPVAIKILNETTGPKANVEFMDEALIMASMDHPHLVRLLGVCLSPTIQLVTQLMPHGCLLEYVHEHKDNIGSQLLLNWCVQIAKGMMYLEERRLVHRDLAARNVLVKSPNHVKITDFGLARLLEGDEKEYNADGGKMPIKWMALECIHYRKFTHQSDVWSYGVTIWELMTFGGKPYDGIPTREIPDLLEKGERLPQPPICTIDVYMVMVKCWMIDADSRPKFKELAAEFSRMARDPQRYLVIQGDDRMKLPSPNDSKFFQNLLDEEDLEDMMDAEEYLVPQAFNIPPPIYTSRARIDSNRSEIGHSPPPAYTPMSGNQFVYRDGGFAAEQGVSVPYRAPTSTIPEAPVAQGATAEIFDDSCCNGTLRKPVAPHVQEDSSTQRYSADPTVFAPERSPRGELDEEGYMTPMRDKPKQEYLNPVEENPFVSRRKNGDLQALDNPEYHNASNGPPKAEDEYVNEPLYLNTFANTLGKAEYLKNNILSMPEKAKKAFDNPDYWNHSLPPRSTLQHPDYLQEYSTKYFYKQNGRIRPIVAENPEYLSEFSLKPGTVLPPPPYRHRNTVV

[5] = biological target: T3, panel of more than 300 wild-type and mutant kinases (313 kinase panel) (Homo sapiens, UniProt Q15831)
T3 sequence (Q15831 1-433): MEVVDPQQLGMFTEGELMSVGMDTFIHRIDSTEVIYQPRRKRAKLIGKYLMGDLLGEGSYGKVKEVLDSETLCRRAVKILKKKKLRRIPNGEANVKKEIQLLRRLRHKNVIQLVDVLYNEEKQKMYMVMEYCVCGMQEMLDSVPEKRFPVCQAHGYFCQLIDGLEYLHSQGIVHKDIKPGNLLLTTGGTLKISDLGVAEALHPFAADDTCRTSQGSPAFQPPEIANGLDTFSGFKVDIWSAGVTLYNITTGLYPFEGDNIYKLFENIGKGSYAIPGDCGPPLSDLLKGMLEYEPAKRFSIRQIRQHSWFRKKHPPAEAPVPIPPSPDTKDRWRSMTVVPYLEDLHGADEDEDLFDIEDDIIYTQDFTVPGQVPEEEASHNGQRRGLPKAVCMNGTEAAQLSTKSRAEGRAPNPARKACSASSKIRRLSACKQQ

[6] = biological target: T4, panel of more than 300 wild-type and mutant kinases (313 kinase panel) (Homo sapiens, UniProt Q9UQB9)
T4 sequence (Q9UQB9 1-309): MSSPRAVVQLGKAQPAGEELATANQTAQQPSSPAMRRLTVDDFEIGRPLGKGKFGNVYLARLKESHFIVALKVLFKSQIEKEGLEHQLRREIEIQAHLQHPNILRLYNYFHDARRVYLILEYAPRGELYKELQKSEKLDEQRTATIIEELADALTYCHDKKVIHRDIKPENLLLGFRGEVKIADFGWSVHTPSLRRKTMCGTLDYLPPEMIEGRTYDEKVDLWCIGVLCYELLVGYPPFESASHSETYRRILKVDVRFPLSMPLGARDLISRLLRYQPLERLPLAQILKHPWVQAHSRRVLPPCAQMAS

[7] = biological target: panel of more than 300 wild-type and mutant kinases (313 kinase panel) (Homo sapiens, UniProt P21802)
[8] = biological target: panel of more than 300 wild-type and mutant kinases (313 kinase panel) (Homo sapiens, UniProt P49759); conditions: kinase CLK1; 1 μM compound
Sequence of panel of more than 300 wild-type and mutant kinases (313 kinase panel) (Homo sapiens, UniProt P49759) (P49759 whole entry, change not shown): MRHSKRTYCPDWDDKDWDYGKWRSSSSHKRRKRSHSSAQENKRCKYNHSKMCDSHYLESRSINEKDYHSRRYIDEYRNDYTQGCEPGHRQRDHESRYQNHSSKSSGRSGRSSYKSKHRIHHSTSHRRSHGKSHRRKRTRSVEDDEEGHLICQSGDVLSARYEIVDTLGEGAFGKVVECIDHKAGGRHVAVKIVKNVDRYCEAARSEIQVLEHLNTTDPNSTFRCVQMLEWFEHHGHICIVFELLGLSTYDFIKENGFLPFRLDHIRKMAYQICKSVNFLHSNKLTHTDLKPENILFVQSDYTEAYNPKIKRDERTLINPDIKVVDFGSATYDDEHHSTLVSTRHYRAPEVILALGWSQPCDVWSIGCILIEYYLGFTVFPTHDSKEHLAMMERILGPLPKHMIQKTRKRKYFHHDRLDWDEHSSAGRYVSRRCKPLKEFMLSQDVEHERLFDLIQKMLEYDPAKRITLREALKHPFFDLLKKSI

[9] = biological target: panel of more than 300 wild-type and mutant kinases (313 kinase panel) (Homo sapiens, UniProt P54764); conditions: kinase EPHA4; compound at 1 μM
Sequence of panel of more than 300 wild-type and mutant kinases (313 kinase panel) (Homo sapiens, UniProt P54764) (P54764 20-986, change not shown): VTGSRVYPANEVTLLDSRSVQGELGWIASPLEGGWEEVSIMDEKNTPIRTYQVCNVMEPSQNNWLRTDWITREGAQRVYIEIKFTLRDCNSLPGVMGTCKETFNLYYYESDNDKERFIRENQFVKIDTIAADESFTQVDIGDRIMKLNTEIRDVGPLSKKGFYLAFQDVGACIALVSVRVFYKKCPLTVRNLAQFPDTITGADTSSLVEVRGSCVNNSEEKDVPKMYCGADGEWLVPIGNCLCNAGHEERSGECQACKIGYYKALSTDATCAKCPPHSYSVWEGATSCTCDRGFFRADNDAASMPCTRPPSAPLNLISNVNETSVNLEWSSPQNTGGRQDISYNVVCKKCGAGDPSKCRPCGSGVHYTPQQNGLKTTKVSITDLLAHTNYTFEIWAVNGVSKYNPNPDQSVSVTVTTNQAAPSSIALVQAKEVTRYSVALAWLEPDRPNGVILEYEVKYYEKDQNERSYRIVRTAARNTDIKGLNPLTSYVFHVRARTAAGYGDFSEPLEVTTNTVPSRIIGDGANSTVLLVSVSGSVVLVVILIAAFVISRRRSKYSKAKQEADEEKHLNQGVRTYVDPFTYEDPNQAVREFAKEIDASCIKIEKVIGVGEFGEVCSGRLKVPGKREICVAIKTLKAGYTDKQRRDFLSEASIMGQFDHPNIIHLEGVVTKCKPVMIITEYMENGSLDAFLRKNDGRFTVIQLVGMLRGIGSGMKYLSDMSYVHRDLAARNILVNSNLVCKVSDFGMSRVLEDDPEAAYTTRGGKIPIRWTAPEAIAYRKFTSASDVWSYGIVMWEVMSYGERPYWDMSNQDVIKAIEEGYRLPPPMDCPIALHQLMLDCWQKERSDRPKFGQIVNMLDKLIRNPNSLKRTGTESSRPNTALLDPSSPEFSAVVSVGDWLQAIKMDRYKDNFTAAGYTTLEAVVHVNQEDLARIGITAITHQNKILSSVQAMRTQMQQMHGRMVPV

[10] = kinase CDK7/CycH/MAT1, 1 μM compound

SMILES | %-inhibition of MOS [1] [%] | %-inhibition of MUSK ([2]; kinase MUSK, 1 μM) [%] | %-inhibition, CDK7/CycH/MAT1 [3, 10] [%] | %-inhibition of HER4 ([4]; kinase HER4, compound at 1 μM) [%] | %-inhibition of LKB1 ([5]; kinase LKB1, compound at 1 μM) [%] | %-inhibition, AurC ([6]; 1 µM) [%] | %-inhibition of FGFR2 ([7]; kinase FGFR2, compound at 1 μM) [%] | %-inhibition, CLK1 [8] [%] | %-inhibition of EPHA4 [9] [%] | %-inhibition, AurC ([6]; kinase AurC, 1 μM compound) [%] | %-inhibition of MUSK ([2]; 1 µM) [%] | %-inhibition of FGFR2 ([7]; 1 µM) [%] | %-inhibition of HER4 ([4]; 1 µM) [%] | %-inhibition of LKB1 ([5]; 1 µM) [%] | %-inhibition, CDK7/CycH/MAT1 ([3]; 1 µM) [%]
CN(C)C/C=C/C(=O)Nc1cc2c(Nc3ccc(F)c(Cl)c3)ncnc2cc1O[C@H]1CCOC1 [afatinib] | -2 |  |  |  |  |  |  |  |  |  |  |  |  |  | 
COc1cc(Nc2c(C#N)cnc3cc(OCCCN4CCN(C)CC4)c(OC)cc23)c(Cl)cc1Cl [bosutinib] | 44 | 58 | -4.35 | 102 | -5.27 | -4 |  |  |  |  |  |  |  |  | 
COc1cc2nccc(Oc3ccc(NC(=O)C4(C(=O)Nc5ccc(F)cc5)CC4)cc3)c2cc1OC [cabozantinib] | 42 | 95 | -10 | 23 | -3.17 |  | 32 | 7 | 97 | 86 |  |  |  |  | 
C[C@@H](Oc1cc(-c2cnn(C3CCNCC3)c2)cnc1N)c1c(Cl)ccc(F)c1Cl [crizotinib] | 1.25 | 99 | 58 | -18 | -1.39 |  | 27 | 13 | 58 | 87 |  |  |  |  | 
CC(C)(C)c1nc(-c2cccc(NS(=O)(=O)c3c(F)cccc3F)c2F)c(-c2ccnc(N)n2)s1 [dabrafenib] | -12 | 16 |  | 23 | 4.34 |  | 4 | 7 | 12 | 23 |  |  |  |  | 
Cc1nc(Nc2ncc(C(=O)Nc3c(C)cccc3Cl)s2)cc(N2CCN(CCO)CC2)n1 [dasatinib] |  |  |  | 103 | 0.734 |  |  |  |  |  |  |  |  |  | 
Cc1cn(-c2cc(NC(=O)c3ccc(C)c(Nc4nccc(-c5cccnc5)n4)c3)cc(C(F)(F)F)c2)cn1 [nilotinib] | -3.64 |  | -2.34 |  |  |  |  | 81 |  | 5 | 42 | -67 | 73 | -6 | 
Cc1ccc(C(=O)Nc2ccc(CN3CCN(C)CC3)c(C(F)(F)F)c2)cc1C#Cc1cnc2cccnn12 [ponatinib] | 1.59 | 100 | 9 | 101 | -12 |  | 100 |  |  | 19 |  |  |  |  | 
N#CC[C@H](C1CCCC1)n1cc(-c2ncnc3[nH]ccc23)cn1 [ruxolitinib] | 8 | 56 |  |  |  |  | 29 | 33 | 12 |  |  |  | -1.9 | 0.546 | 3.25
CCN(CC)CCNC(=O)c1c(C)[nH]c(/C=C2\C(=O)Nc3ccc(F)cc32)c1C [sunitinib] |  | 99 |  |  | 11 |  | 97 |  |  | 82 |  |  |  |  | 
CO[C@H]1C[C@@H]2CC[C@@H](C)[C@@](O)(O2)C(=O)C(=O)N2CCCC[C@H]2C(=O)O[C@H]([C@H](C)C[C@@H]2CC[C@@H](OC(=O)C(C)(CO)CO)[C@H](OC)C2)CC(=O)[C@H](C)/C=C(\C)[C@@H](O)[C@@H](OC)C(=O)[C@H](C)C[C@H](C)/C=C/C=C/C=C/1C [temsirolimus] | -1.43 | -9 | -8 | -5.46 | -6.57 |  | -9 |  | -4.51 | 0.194 |  |  |  |  | 
COc1cc2c(Nc3ccc(Br)cc3F)ncnc2cc1OCC1CCN(C)CC1 [vandetanib] | 9 | 42 | -4.26 |  | -4.54 |  | 103 | 14 |  |  |  |  |  |  | 
